Tests used:
Assay in all cases: relative viability (nuclei count vs DMSO), 5 days (fraction); higher = more cells survive
[1] = compound: C=C(c1ccc(C(=O)O)cc1)c1cc2c(cc1C)C(C)(C)CCC2(C)C [Bexarotene]
Summary of the method: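 Only plates meeting two conditions passed: control CV below 25% and at least one doubling. Lung cancer cell lines, kept overnight at 37 °C in 1536-well plates, were pinned with five library-drug doses (not always all listed) √10 apart on vehicle-anchored plates and grown 5 days without medium change. A one-step fix, permeabilisation and Hoechst stain preceded 4× imaging and MetaXpress nuclear counting. Viability equals treated-well nuclei divided by vehicle-well nuclei, as the median over plates.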

[2] = compound: C=C(c1ccc(C(=O)O)cc1)c1cc2c(cc1C)C(C)(C)CCC2(C)C [Bexarotene] + CC1(C)CCC(c2ccc(Cl)cc2)=C(CN2CCN(c3ccc(C(=O)NS(=O)(=O)c4ccc(N[C@H](CCN5CCOCC5)CSc5ccccc5)c(S(=O)(=O)C(F)(F)F)c4)cc3)CC2)C1 [Navitoclax] (partner 0.5 µM)
Summary of the method: (§1)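 Lung cancer cell lines in 1536-well plates got either a single drug or a fixed anchor-drug dose together with five library-drug doses (not always all listed) in √10 steps, by pin tool, on the day after seeding. Nuclei were counted after 5 days, and relative viability is the treated-to-vehicle ratio of nuclei counts. Values are medians of duplicate plates.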

[3] = compound: C=C(c1ccc(C(=O)O)cc1)c1cc2c(cc1C)C(C)(C)CCC2(C)C [Bexarotene] + Cc1cc(Nc2cc(N3CCN(C)CC3)nc(Sc3ccc(NC(=O)C4CC4)cc3)n2)n[nH]1 [Tozasertib] (partner 0.1 µM)
Summary of the method: as §1

[4] = compound: C=C(c1ccc(C(=O)O)cc1)c1cc2c(cc1C)C(C)(C)CCC2(C)C [Bexarotene] + N=C(N)NC(=N)NCCc1ccccc1 [Phenformin] (partner 250 µM)
Summary of the method: as §1

Row | Cell Line | relative viability ([1]; 0.08 µM) | relative viability ([1]; 0.253 µM) | relative viability ([1]; 0.8 µM) | relative viability ([1]; 2.53 µM) | relative viability ([1]; 8 µM) | relative viability ([2]; first compound 0.08 µM) | relative viability ([2]; first compound 0.253 µM) | relative viability ([2]; first compound 0.8 µM) | relative viability ([2]; first compound 2.53 µM) | relative viability ([2]; first compound 8 µM) | relative viability ([3]; first compound 0.08 µM) | relative viability ([3]; first compound 0.253 µM) | relative viability ([3]; first compound 0.8 µM) | relative viability ([3]; first compound 2.53 µM) | relative viability ([3]; first compound 8 µM) | relative viability ([4]; first compound 0.08 µM) | relative viability ([4]; first compound 0.253 µM) | relative viability ([4]; first compound 0.8 µM) | relative viability ([4]; first compound 2.53 µM) | relative viability ([4]; first compound 8 µM)
1 | LOU-NH91 | 1.04 | 0.957 | 0.952 | 0.869 | 0.926 | 0.608 | 0.637 | 0.502 | 0.597 | 0.512 | 0.643 | 0.624 | 0.665 | 0.637 | 0.598 | 0.687 | 0.673 | 0.595 | 0.6 | 0.49
2 | LU99A | 1.33 | 1.07 | 0.977 | 1.06 | 1.09 | 0.931 | 0.828 | 0.826 | 0.895 | 0.89 | 0.291 | 0.252 | 0.296 | 0.234 | 0.284 | 1.24 | 0.89 | 0.862 | 0.829 | 0.912
3 | LXF-289 | 1.19 | 1.18 | 1.16 | 1.17 | 1.29 | 1.11 | 1.09 | 1.08 | 1.1 | 0.974 | 0.166 | 0.196 | 0.213 | 0.137 | 0.141 | 0.591 | 0.544 | 0.523 | 0.516 | 0.508
4 | NCI-H23 | 1.17 | 0.927 | 0.952 | 0.82 | 0.899 | 1.01 | 0.96 | 0.853 | 0.923 | 0.729 | 0.383 | 0.619 | 0.365 | 0.287 | 0.333 | 0.854 | 0.759 | 0.694 | 0.763 | 0.712
5 | NCI-H322M | 1.08 | 1.03 | 0.937 | 0.988 | 1.01 | 1.19 | 1.33 | 1.17 | 1.19 | 1.26 | 0.508 | 0.505 | 0.488 | 0.475 | 0.445 | 0.969 | 0.825 | 0.814 | 0.775 | 0.789
6 | NCI-H441 | 1.31 | 1.1 | 1.04 | 0.969 | 1 | 0.845 | 0.747 | 1.02 |  | 0.541 | 0.709 | 0.758 | 0.631 | 0.676 | 0.656 | 1.03 | 0.743 | 0.811 | 0.864 | 0.868
7 | NCI-H460 | 1.04 | 0.976 | 0.986 | 0.944 | 0.946 | 1.31 | 1.18 | 1.05 | 0.993 | 0.918 | 0.541 | 0.452 | 0.481 | 0.399 | 0.427 | 0.552 | 0.543 | 0.494 | 0.455 | 0.427
8 | NCI-H520 | 1.06 | 0.869 | 0.865 | 0.852 | 0.972 | 1.14 | 1.11 | 1.03 | 1.14 | 0.993 | 0.409 | 0.454 | 0.411 | 0.417 | 0.382 | 0.643 | 0.485 | 0.514 | 0.445 | 0.417

From the supplement of paper PMC10307832
